Source: PubChem BioAssay (NCI)
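Interpolation was linear, between the two tested concentrations surrounding the appropriate level; five concentrations were tested over 48 hours in 96-well plates. The concentration for 50% growth inhibition is given as GI50. TGI: total growth inhibition.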

Experiments:
Assay in all cases: NCI tumour cell line growth inhibition, 48 h
[1] = system: NCI/ADR-RES ovarian
[2] = system: NCI-H522 lung
[3] = system: SF-268 CNS
[4] = system: DU-145 prostate
[5] = system: HT29 colon
[6] = system: MDA-MB-231 breast
[7] = system: SNB-19 CNS
[8] = system: HCT-15 colon
[9] = system: MCF7 breast
[10] = system: HCT-116 colon
[11] = system: SN12C renal
[12] = system: SK-MEL-5 melanoma
[13] = system: SK-MEL-2 melanoma
[14] = system: A549 NSCLC
[15] = system: MOLT-4 leukemia
[16] = system: SF-295 CNS
[17] = system: RXF 393 renal
[18] = system: A498 renal
[19] = system: NCI-H460 lung
[20] = system: HOP-92 NSCLC
[21] = system: SK-OV-3 ovarian
[22] = system: OVCAR-3 ovarian
[23] = system: IGROV1 ovarian
[24] = system: HS 578T breast
[25] = system: BT-549 breast
[26] = system: MDA-MB-435
[27] = system: SW-620 colon
[28] = system: HL-60(TB) leukemia
[29] = system: HOP-62 NSCLC
[30] = system: NCI-H226 lung
[31] = system: CAKI-1 renal
[32] = system: SF-539 CNS
[33] = system: CCRF-CEM leukemia
[34] = system: UACC-257 melanoma
[35] = system: SR leukemia
[36] = system: 786-0 renal
[37] = system: KM12 colon
[38] = system: RPMI-8226 leukemia
[39] = system: NCI-H23 lung
[40] = system: PC-3 prostate
[41] = system: UACC-62 melanoma
[42] = system: ACHN renal
[43] = system: SK-MEL-28 melanoma
[44] = system: OVCAR-8 ovarian
[45] = system: LOX IMVI melanoma
[46] = system: M14 melanoma
[47] = system: COLO 205 colon
[48] = system: OVCAR-5 ovarian
[49] = system: TK-10 renal
[50] = system: UO-31 renal
[51] = system: U251 CNS
[52] = system: K-562 leukemia
[53] = system: HCC-2998 colon
[54] = system: OVCAR-4 ovarian
[55] = system: SNB-75 CNS
[56] = system: MALME-3M melanoma
[57] = system: EKVX NSCLC
[58] = system: T-47D breast

`COc1ccc(/C=C\c2cc(OC)c(OC)c(OC)c2)c(NS(=O)(=O)c2ccc(Cl)cc2)c1O` was tested, and the GI50 [1] was 263 nM, the TGI [1] was 22400 nM and the GI50 [2] was 84.8 nM. It also gave a TGI [2] of 607 nM, a GI50 [3] of 380 nM and a TGI [3] of 33900 nM. It also gave a GI50 [4] of 200 nM, a TGI [4] greater than 100000 nM and a GI50 [5] of 2760 nM. The TGI [5] was 11900 nM, the GI50 [6] was 206 nM and the TGI [6] was 21400 nM. It also gave a GI50 [7] of 807 nM, a TGI [7] greater than 100000 nM and a GI50 [8] of 53 nM. The TGI [8] was greater than 100000 nM, the GI50 [9] was 38.4 nM and the TGI [9] was greater than 100000 nM. It also gave a GI50 [10] of 114 nM, a TGI [10] greater than 100000 nM and a GI50 [11] of 708 nM. The TGI [11] was 46500 nM, the GI50 [12] was 51.1 nM and the TGI [12] was 332 nM. For the same compound, the GI50 [13] was 65.9 nM, the TGI [13] was 21300 nM and the GI50 [14] was 270 nM. The TGI [14] was greater than 100000 nM, the GI50 [15] was 315 nM and the TGI [15] was 83300 nM. The GI50 [16] was 256 nM, the TGI [16] was 12200 nM and the GI50 [17] was 35.5 nM. It also gave a TGI [17] of 10700 nM, a GI50 [18] of 22.9 nM and a TGI [18] of 422 nM. It also gave a GI50 [19] of 316 nM, a TGI [19] of 14400 nM and a GI50 [20] of 2360 nM. For the same compound, the TGI [20] was 23600 nM, the GI50 [21] was 229 nM and the TGI [21] was 24300 nM. For the same compound, the GI50 [22] was 60.2 nM, the TGI [22] was 10700 nM and the GI50 [23] was 379 nM. For the same compound, the TGI [23] was 49500 nM, the GI50 [24] was 292 nM and the TGI [24] was 37000 nM. It also gave a GI50 [25] of 353 nM, a TGI [25] of 34500 nM and a GI50 [26] of 22.2 nM. It also gave a TGI [26] of 52.5 nM, a GI50 [27] of 69.4 nM and a TGI [27] greater than 100000 nM. It also gave a GI50 [28] of 33.1 nM, a TGI [28] of 265 nM and a GI50 [29] of 671 nM. For the same compound, the TGI [29] was 46100 nM, the GI50 [30] was 24900 nM and the TGI [30] was 90400 nM. For the same compound, the GI50 [31] was 54.2 nM, the TGI [31] was 28700 nM and the GI50 [32] was 37.1 nM. For the same compound, the TGI [32] was 10500 nM, the GI50 [33] was 159 nM and the TGI [33] was greater than 100000 nM. It also gave a GI50 [34] of 14200 nM, a TGI [34] of 60500 nM and a GI50 [35] of 30.6 nM. For the same compound, the TGI [35] was 10400 nM, the GI50 [36] was 572 nM and the TGI [36] was 24800 nM. The GI50 [37] was 127 nM, the TGI [37] was 12800 nM and the GI50 [38] was 207 nM. It also gave a TGI [38] of 20500 nM, a GI50 [39] of 288 nM and a TGI [39] of 42400 nM. The GI50 [40] was 153 nM, the TGI [40] was greater than 100000 nM and the GI50 [41] was 63.5 nM. For the same compound, the TGI [41] was 22600 nM, the GI50 [42] was 83.8 nM and the TGI [42] was 30700 nM. For the same compound, the GI50 [43] was 84 nM, the TGI [43] was 31600 nM and the GI50 [44] was 294 nM. For the same compound, the TGI [44] was 80600 nM, the GI50 [45] was 153 nM and the TGI [45] was 15500 nM. The GI50 [46] was 91.3 nM, the TGI [46] was 56300 nM and the GI50 [47] was 1740 nM. It also gave a TGI [47] of 5760 nM, a GI50 [48] of 2860 nM and a TGI [48] of 33800 nM. It also gave a GI50 [49] of 998 nM, a TGI [49] of 27700 nM and a GI50 [50] of 73.9 nM. It also gave a TGI [50] of 26400 nM, a GI50 [51] of 287 nM and a TGI [51] of 15500 nM. It also gave a GI50 [52] of 32.3 nM, a TGI [52] of 20200 nM and a GI50 [53] of 429 nM. The TGI [53] was 16400 nM, the GI50 [54] was 97.3 nM and the TGI [54] was greater than 100000 nM. The GI50 [55] was 33.1 nM and the TGI [55] was 17400 nM.
With `N=C(N)c1ccc(-c2ccc(-c3cc(Cl)cc(Cl)c3)o2)o1` the GI50 [4] was 1780 nM, the TGI [4] was 3240 nM and the GI50 [21] was 1800 nM. For the same compound, the TGI [21] was 3340 nM, the GI50 [22] was 1700 nM and the TGI [22] was 3140 nM. For the same compound, the GI50 [24] was 2220 nM, the TGI [24] was 5020 nM and the GI50 [26] was 1610 nM. The TGI [26] was 2990 nM, the GI50 [28] was 1620 nM and the TGI [28] was 3490 nM. The GI50 [31] was 1700 nM, the TGI [31] was 3110 nM and the GI50 [37] was 1650 nM. The TGI [37] was 3180 nM, the GI50 [38] was 2130 nM and the TGI [38] was 4630 nM. For the same compound, the GI50 [49] was 1850 nM and the TGI [49] was 3390 nM.
For `Clc1ccc2c(c1)C(N1CCNCC1)=Nc1ccccc1O2`, the GI50 [1] was 1990 nM, the TGI [1] was 5120 nM and the GI50 [2] was 1820 nM. The TGI [2] was 3870 nM, the GI50 [3] was 2650 nM and the TGI [3] was 11800 nM. It also gave a GI50 [4] of 4180 nM, a TGI [4] of 15400 nM and a GI50 [5] of 1720 nM. For the same compound, the TGI [5] was 4190 nM, the GI50 [6] was 1790 nM and the TGI [6] was 4020 nM. For the same compound, the GI50 [7] was 2970 nM, the TGI [7] was 12800 nM and the GI50 [8] was 3260 nM. For the same compound, the TGI [8] was 11700 nM, the GI50 [9] was 1620 nM and the TGI [9] was 3050 nM. The GI50 [10] was 1420 nM, the TGI [10] was 2800 nM and the GI50 [11] was 2870 nM. It also gave a TGI [11] of 13600 nM, a GI50 [12] of 1390 nM and a TGI [12] of 2690 nM. The GI50 [13] was 1770 nM, the TGI [13] was 3400 nM and the GI50 [56] was 1750 nM. The TGI [56] was 3500 nM, the GI50 [14] was 4500 nM and the TGI [14] was 16900 nM. The GI50 [15] was 1820 nM, the TGI [15] was 4190 nM and the GI50 [16] was 1920 nM. For the same compound, the TGI [16] was 3820 nM, the GI50 [17] was 1220 nM and the TGI [17] was 2770 nM. For the same compound, the GI50 [18] was 3100 nM, the TGI [18] was 5460 nM and the GI50 [19] was 2460 nM. It also gave a TGI [19] of 5410 nM, a GI50 [20] of 374 nM and a TGI [20] of 2800 nM. For the same compound, the GI50 [21] was 1940 nM, the TGI [21] was 4500 nM and the GI50 [22] was 2800 nM. For the same compound, the TGI [22] was 10400 nM, the GI50 [23] was 2890 nM and the TGI [23] was 11100 nM. The GI50 [25] was 2420 nM, the TGI [25] was 10200 nM and the GI50 [26] was 1650 nM. For the same compound, the TGI [26] was 3110 nM, the GI50 [27] was 1620 nM and the TGI [27] was 3150 nM. For the same compound, the GI50 [28] was 1950 nM, the TGI [28] was 3860 nM and the GI50 [29] was 2010 nM. For the same compound, the TGI [29] was 4660 nM, the GI50 [30] was 2570 nM and the TGI [30] was 11900 nM. It also gave a GI50 [31] of 2200 nM, a TGI [31] of 7830 nM and a GI50 [32] of 1750 nM. For the same compound, the TGI [32] was 3360 nM, the GI50 [33] was 1900 nM and the TGI [33] was 4770 nM. It also gave a GI50 [34] of 1500 nM, a TGI [34] of 2870 nM and a GI50 [35] of 1660 nM. It also gave a TGI [35] of 4300 nM, a GI50 [57] of 3470 nM and a TGI [57] of 17400 nM. It also gave a GI50 [36] of 1490 nM, a TGI [36] of 3270 nM and a GI50 [37] of 1730 nM. The TGI [37] was 3280 nM, the GI50 [58] was 1910 nM and the TGI [58] was 4580 nM. For the same compound, the GI50 [38] was 1960 nM, the TGI [38] was 4930 nM and the GI50 [39] was 3460 nM. For the same compound, the TGI [39] was 14300 nM, the GI50 [40] was 1540 nM and the TGI [40] was 8740 nM. The GI50 [41] was 1630 nM, the TGI [41] was 3100 nM and the GI50 [42] was 1970 nM. It also gave a TGI [42] of 4200 nM, a GI50 [43] of 1610 nM and a TGI [43] of 2960 nM. For the same compound, the GI50 [44] was 1860 nM, the TGI [44] was 4000 nM and the GI50 [45] was 1540 nM. For the same compound, the TGI [45] was 2870 nM, the GI50 [46] was 1680 nM and the TGI [46] was 3070 nM. For the same compound, the GI50 [47] was 1360 nM, the TGI [47] was 2670 nM and the GI50 [48] was 3280 nM. The TGI [48] was 12900 nM, the GI50 [49] was 2040 nM and the TGI [49] was 4720 nM. It also gave a GI50 [50] of 1640 nM, a TGI [50] of 10600 nM and a GI50 [51] of 1510 nM. It also gave a TGI [51] of 2990 nM, a GI50 [53] of 1580 nM and a TGI [53] of 2920 nM. It also gave a GI50 [54] of 2450 nM, a TGI [54] of 8720 nM and a GI50 [55] of 1130 nM. It also gave a TGI [55] of 2790 nM.
